# Source: patent US9896718B2, “Herbicide tolerant cotton event pDAB4468.18.07.1” (Dow AgroSciences LLC, priority 2012, dated 2018)
# Read-outs that look alike come from different tables or passages of the source.
# What was measured:
# [1] = tested on: cotton event pDAB4468.18.07.1; test: Tolerance to 2,4-D in field trials (percent visual injury after postemergence application); assay type: in vivo, Gossypium hirsutum; conditions: for Percent visual injury: postemergence, 2-4 leaf cotton, field
# Description: The application of 2,4-D on cotton plants at this stage of development represents a herbicide application timing typically utilized to achieve satisfactory weed control by cotton growers.
# 2,4-D tolerance was measured by assessing cotton plants for injury at 0-1 day after application (DAA), 7-8 DAA, 12-16 DAA, and 24-32 DAA. Measurements for the 0-1 day time increment were taken from 6-24 hours after the application. […] The ratings were a composite score for any herbicide symptomology including epinasty, chlorosis, leaf necrosis and plant death. Herbicide symptomology present at 0-1 DAA was primarily epinasty and symptoms at later evaluations were primarily chlorosis and necrosis.
# (§1) Field trials were conducted at eleven locations across the United States in typical cotton producing areas of Alabama, Arkansas, California, Georgia, Louisiana, Mississippi, North Carolina, South Carolina, and Tennessee. Trials were designed with four replications per treatment. Each replication was separated by a bare-soil alley 10-15 feet wide. Plot size for individual treatments was 2 rows by 20 feet long with rows typically spaced 36-40 inches apart. Experimental treatments consisted of cotton event pDAB4468.18.07.1 sprayed with 2,4-D amine (Weedar 64™, NuFarm, Burr Ridge, Ill.) at either 0, 1120, 2240, or 4480 grams acid equivalent per hectare (g ae/ha) applied in 15 gallons per acre of final spray solution. A non-transformed cotton comparator treatment was not included in these experiments since treatment with 2,4-D at rates much lower than the lowest rate tested (1120 g ae/ha) are known to result in plant death.
# non-transformed cotton = conditions: rates much lower than the lowest rate tested (1120 g ae/ha); known; cited from earlier work
# [2] = tested on: cotton event pDAB4468.18.07.1; test: Agronomic characterization in field trials with and without herbicide application; assay type: in vivo, Gossypium hirsutum; conditions: standard field application rates, 2010 field trials
# Source text: The agronomic characteristics of cotton event pDAB4468.18.07.1 were quantified in field trials conducted across geographically different locations throughout the cotton belt in 2010. These studies compared the agronomic performance of cotton event pDAB4468.18.07.1 (with and without applications of the herbicides 2,4-D and glufosinate) to the non-transgenic near-isoline control, Coker 310. No agronomically meaningful unintended differences were observed between cotton event pDAB4468.18.07.1 and the Coker 310 control plants. […] Additionally, the agronomic performance of cotton event pDAB4468.18.07.1 was not altered as a result of the application of the herbicides, 2,4-D and glufosinate, as compared to the cotton event pDAB4468.18.07.1 plants which were not sprayed with the herbicide treatments. […]
# Seeds of cotton event pDAB4468.18.07.1 and seeds of the near-isoline control line, Coker 310, were planted at a rate of 80 seeds per 20 ft row with a row spacing of 34-38 inches (86.36 cm-96.52 cm). […] The measured agronomic characteristics were equivalent for cotton event pDAB4468.18.07.1 as compared to the Coker 310 near-isoline control plants for all of the agronomic characteristics measured and statistically analyzed. […]
# [3] = tested on: cotton event pDAB4468.18.07.1; conditions: for % Injury: cotton event pDAB4468.18.07.1, 3 leaf stage
# Description: The tolerance of cotton event pDAB4468.18.07.1 to postemergence applications of the pyridyloxyacetic acid herbicides, triclopyr and fluroxypyr, was studied in greenhouse trials. Herbicide tolerance was assessed following a single postemergence application of triclopyr or fluroxypyr.
# Seeds from cotton event pDAB4468.18.07.1 were heat treated in a water bath at 82.5° C. for 1 minute and then planted in metro mix 360 media and grown in a greenhouse. The temperatures in the greenhouse averaged 27° C. and the photoperiod was set at 16 hours of light and eight hours of dark, with maximum light intensity. Plants were allowed to grow until the 3 leaf stage of development and a non-randomized study was conducted with three replications and three treatments for each herbicide. Plants were sprayed in a track sprayer calibrated to deliver 187 L/ha of the commercial formulations of triclopyr (Garton 4™, Dow AgroSciences, Indianapolis, Ind.) and fluroxypyr (Starane™, Dow AgroSciences, Indianapolis, Ind.). A non-transformed Coker 310 variety of cotton was used as a negative control. Visual injury assessment was taken 3 DAA (days after application) and 11 DAA comparing each rate of herbicide. Injury was assessed visually as percentage of epinastic cotton-plant foliage using a linear percentage scale […] where 0% represents no visible herbicide injury and 100% represents plant death.
# [4] = tested on: non-transformed Coker 310 variety of cotton; test: Tolerance to triclopyr and fluroxypyr in greenhouse trials (percent visual injury), negative control plants; assay type: in vivo; conditions: 3 leaf stage
# Description: Seeds from cotton event pDAB4468.18.07.1 were heat treated in a water bath at 82.5° C. for 1 minute and then planted in metro mix 360 media and grown in a greenhouse. The temperatures in the greenhouse averaged 27° C. and the photoperiod was set at 16 hours of light and eight hours of dark, with maximum light intensity. Plants were allowed to grow until the 3 leaf stage of development and a non-randomized study was conducted with three replications and three treatments for each herbicide. Plants were sprayed in a track sprayer calibrated to deliver 187 L/ha of the commercial formulations of triclopyr (Garton 4™, Dow AgroSciences, Indianapolis, Ind.) and fluroxypyr (Starane™, Dow AgroSciences, Indianapolis, Ind.). A non-transformed Coker 310 variety of cotton was used as a negative control. Visual injury assessment was taken 3 DAA (days after application) and 11 DAA comparing each rate of herbicide. Injury was assessed visually as percentage of epinastic cotton-plant foliage using a linear percentage scale (1-100%) where 0% represents no visible herbicide injury and 100% represents plant death.
# [5] = tested on: cotton event pDAB4468.18.07.1; test: Tolerance to glufosinate in field trials (percent visual injury after postemergence application); assay type: in vivo, Gossypium hirsutum; conditions: for Percent visual injury: postemergence, 6-8 leaf cotton, field
# Description: Glufosinate tolerance was measured by assessing cotton plants for injury at 2-4 days after application (DAA), 7-9 DAA, 13-19 DAA and 22-29 DAA. […] The ratings were a composite score for any herbicide symptomology including chlorosis, leaf necrosis, stunting and plant death. Herbicide symptomology (where present) was primarily chlorosis and necrosis.
# as §1, with “glufosinate ammonium (Ignite 280 SL™, Bayer, Research Triangle, N.C.)” for “2,4-D amine (Weedar 64™, NuFarm, Burr Ridge, Ill.)”, “542, 1084,” for “1120, 2240,”, “2168” for “4480”, “glufosinate” for “2,4-D”, “(542” for “(1120”, “would be expected” for “are known”
compound,measurement,setting,value
"CNC.O=C(O)COc1ccc(Cl)cc1Cl [2,4-D]",herbicide injury noted in the experiments,"[1]; 1120-4480 g ae/ha, with the exception of transient epinasty 0-1 DAA",no agronomically-significant herbicide injury
same,Percent visual injury,"[1]; 1120 g ae/ha, 0-1 DAA",5.0%
same,Percent visual injury,"[1]; 1120 g ae/ha, 7-8 DAA",2.3%
same,Percent visual injury,"[1]; 1120 g ae/ha, 12-16 DAA",1.1%
same,Percent visual injury,"[1]; 1120 g ae/ha, 24-32 DAA",0.0%
same,Percent visual injury,"[1]; 2240 g ae/ha, 0-1 DAA",11.7%
same,Percent visual injury,"[1]; 2240 g ae/ha, 7-8 DAA",4.9%
same,Percent visual injury,"[1]; 2240 g ae/ha, 12-16 DAA",2.7%
same,Percent visual injury,"[1]; 2240 g ae/ha, 24-32 DAA",0.4%
same,crop injury beyond the 7-8 DAA evaluation interval,[1]; 4480 g ae/ha (>4× rate required for broad spectrum weed control),little crop injury
same,Percent visual injury,"[1]; 4480 g ae/ha, 0-1 DAA",21.0%
same,Percent visual injury,"[1]; 4480 g ae/ha, 7-8 DAA",15.1%
same,Percent visual injury,"[1]; 4480 g ae/ha, 12-16 DAA",8.0%
same,Percent visual injury,"[1]; 4480 g ae/ha, 24-32 DAA",2.2%
same,result of treatment of non-transformed cotton,non-transformed cotton,plant death
same,agronomic performance of cotton event after herbicide application vs unsprayed plants,[2],not altered
"Nc1c(Cl)c(F)nc(OCC(=O)O)c1Cl [Fluroxypyr, fluroxypyr]",level of herbicide to which tolerance is provided,[3]; in vivo,up to 280 g ae/ha
"O=C(O)COc1nc(Cl)c(Cl)cc1Cl [Triclopyr, triclopyr]",% Injury,"[4]; 140 g ae/ha, 3 DAA",33.8 a %
same,% Injury,"[4]; 140 g ae/ha, 11 DAA",36.3 b %
same,% Injury,"[4]; 280 g ae/ha, 3 DAA",33.8 a %
same,% Injury,"[4]; 280 g ae/ha, 11 DAA",40.0 ab %
same,% Injury,"[4]; 560 g ae/ha, 3 DAA",36.3 a %
same,% Injury,"[4]; 560 g ae/ha, 11 DAA",48.8 a %
same,tolerance of the plants,"[3]; 3 DAA, greenhouse",moderate levels of tolerance
same,% Injury,"[3]; 140 g ae/ha, 3 DAA, greenhouse",11.8 b %
same,% Injury,"[3]; 140 g ae/ha, 11 DAA, greenhouse",3.0 a %
same,% Injury,"[3]; 280 g ae/ha, 3 DAA, greenhouse",17.0 a %
same,% Injury,"[3]; 280 g ae/ha, 11 DAA, greenhouse",6.3 a %
same,% Injury,"[3]; 560 g ae/ha, 3 DAA, greenhouse",19.3 a %
same,% Injury,"[3]; 560 g ae/ha, 11 DAA, greenhouse",3.5 a %
same,tolerance of the plants compared to the non-transformed control,"[3]; by 11 DAA, recovered from the initial epinastic response, greenhouse",robust tolerance
CP(=O)(O)CCC(N)C(=O)O (stereo not shown) [glufosinate],herbicide injury noted in the experiments,"[5]; 542-2168 g ae/ha, with the exception of transient chlorosis at 2168 g ae/ha at 2-4 & 7-9 DAA",no agronomically-significant herbicide injury
same,Percent visual injury,"[5]; 542 g ae/ha, 2-4 DAA",3.1%
same,Percent visual injury,"[5]; 542 g ae/ha, 7-9 DAA",2.3%
same,Percent visual injury,"[5]; 542 g ae/ha, 13-19 DAA",0.1%
same,Percent visual injury,"[5]; 542 g ae/ha, 22-29 DAA",0.1%
same,Percent visual injury,"[5]; 1084 g ae/ha, 2-4 DAA",7.6%
same,Percent visual injury,"[5]; 1084 g ae/ha, 7-9 DAA",4.8%
same,Percent visual injury,"[5]; 1084 g ae/ha, 13-19 DAA",0.1%
same,Percent visual injury,"[5]; 1084 g ae/ha, 22-29 DAA",0.0%
same,crop injury beyond the 7-9 DAA evaluation interval,[5]; 2168 g ae/ha (>4× rate required for broad spectrum weed control),little crop injury
same,Percent visual injury,"[5]; 2168 g ae/ha, 2-4 DAA",14.8%
same,Percent visual injury,"[5]; 2168 g ae/ha, 7-9 DAA",10.8%
same,Percent visual injury,"[5]; 2168 g ae/ha, 13-19 DAA",2.2%
same,Percent visual injury,"[5]; 2168 g ae/ha, 22-29 DAA",0.3%
same,agronomic performance of cotton event after herbicide application vs unsprayed plants,[2],not altered
